T/C data for 27 compounds are collected here from PubChem BioAssay AID330 (DTP/NCI, 2004).

“And” between values parts separate entries of the source, which are not always exact repeats. Equal values may be shown once. Inconclusive results and toxic doses are left out.

The assay has as its system P388 leukemia ip, CD2F1 mice, survival T/C. Description: NCI In Vivo Anticancer Drug Screen. Data for tumor model P388 Leukemia (intraperitoneal) in CD2F1 (CDF1) mice. The note with it: endpoint: median survival time, higher = longer survival. An outline of the steps:
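Mice carrying the transplanted tumor received test compound or vehicle. Survival was recorded in each group, and the value is the treated-group measurement divided by that of the vehicle-treated control group.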

Setting [1] is: dose: 100.0 mg/kg/injection, schedule: Q04DX003 (ip), vehicle: saline.
Where [2] appears, read: dose: 200.0 mg/kg/injection, schedule: Q04DX003 (ip), vehicle: saline.
Setting [3] is: dose: 400.0 mg/kg/injection, schedule: Q04DX003 (ip), vehicle: saline.
Where [4] appears, read: dose: 50.0 mg/kg/injection, schedule: Q01DX009 (ip), vehicle: saline.
[5] abbreviates: dose: 100.0 mg/kg/injection, schedule: Q01DX009 (ip), vehicle: saline.
Setting [6] is: dose: 200.0 mg/kg/injection, schedule: Q01DX009 (ip), vehicle: saline.
The mark [7] stands for this setting: dose: 50.0 mg/kg/injection, schedule: Q01DX009 (ip), vehicle: saline with Tween-80.
The mark [8] stands for this setting: dose: 100.0 mg/kg/injection, schedule: Q01DX009 (ip), vehicle: saline with Tween-80.
Setting [9] is: dose: 100.0 mg/kg/injection, schedule: Q04DX002 (ip), vehicle: saline with Tween-80.
[10] abbreviates: dose: 200.0 mg/kg/injection, schedule: Q04DX002 (ip), vehicle: saline with Tween-80.
Where [11] appears, read: dose: 400.0 mg/kg/injection, schedule: Q04DX002 (ip), vehicle: saline with Tween-80.
Where [12] appears, read: dose: 12.5 mg/kg/injection, schedule: Q01DX005 (ip), vehicle: Klucel (hydroxypropylcellulose) (HPC).
[13] abbreviates: dose: 25.0 mg/kg/injection, schedule: Q01DX005 (ip), vehicle: Klucel (hydroxypropylcellulose) (HPC).
The mark [14] stands for this setting: dose: 50.0 mg/kg/injection, schedule: Q01DX005 (ip), vehicle: Klucel (hydroxypropylcellulose) (HPC).
Setting [15] is: dose: 60.0 mg/kg/injection, schedule: Q01DX005 (ip), vehicle: saline with Tween-80.
Setting [16] is: dose: 120.0 mg/kg/injection, schedule: Q01DX005 (ip), vehicle: saline with Tween-80.
[17] abbreviates: dose: 50.0 mg/kg/injection, schedule: Q01DX005 (ip), vehicle: saline with Tween-80.
Where [18] appears, read: dose: 100.0 mg/kg/injection, schedule: Q01DX005 (ip), vehicle: saline with Tween-80.
The mark [19] stands for this setting: dose: 200.0 mg/kg/injection, schedule: Q01DX005 (ip), vehicle: saline with Tween-80.
[20] abbreviates: dose: 100.0 mg/kg/injection, schedule: Q01DX001 (ip), vehicle: Klucel (hydroxypropylcellulose) (HPC).
[21] abbreviates: dose: 200.0 mg/kg/injection, schedule: Q01DX001 (ip), vehicle: Klucel (hydroxypropylcellulose) (HPC).

Take `COc1nc(Nc2ccc(/C=C/c3ccc(Nc4nc(OC)nc(N(CCO)CCO)n4)cc3S(=O)(=O)O)c(S(=O)(=O)O)c2)nc(N(CCO)CCO)n1`: the T/C under setting [1] is 98 % of control, the T/C under setting [2] is 98 % of control and the T/C under setting [3] is 103 % of control.
In the case of `CSc1nc(COC(=O)NC(C)C)c(COC(=O)NC(C)C)n1C`, the T/C runs as follows: (dose: 12.5 mg/kg/injection, schedule: Q01DX005 (ip), vehicle: Klucel + Tween-80) 113 % of control; (dose: 25.0 mg/kg/injection, schedule: Q01DX005 (ip), vehicle: Klucel + Tween-80) 116 % of control; (dose: 100.0 mg/kg/injection, schedule: Q01DX005 (ip), vehicle: Klucel + Tween-80) 156 % of control and 163 % of control; (dose: 200.0 mg/kg/injection, schedule: Q01DX005 (ip), vehicle: Klucel + Tween-80) 184 % of control.
`COC(=O)c1cc(=O)n(-c2ccccc2OC)c(SC)n1`: the T/C reads like this: (dose: 25.0 mg/kg/injection, schedule: Q04DX002 (ip), vehicle: Klucel (hydroxypropylcellulose) (HPC)) 110 % of control; (dose: 50.0 mg/kg/injection, schedule: Q04DX002 (ip), vehicle: Klucel (hydroxypropylcellulose) (HPC)) 100 % of control; (dose: 100.0 mg/kg/injection, schedule: Q04DX002 (ip), vehicle: Klucel (hydroxypropylcellulose) (HPC)) 103 % of control.
Regarding `O=C1CSC(=S)N1c1ccc(Cl)cc1`, the T/C was 96 % of control (dose: 25.0 mg/kg/injection, schedule: Q01DX009 (ip), vehicle: Klucel (hydroxypropylcellulose) (HPC)); 96 % of control (dose: 50.0 mg/kg/injection, schedule: Q01DX009 (ip), vehicle: Klucel (hydroxypropylcellulose) (HPC)); 113 % of control (dose: 100.0 mg/kg/injection, schedule: Q01DX009 (ip), vehicle: Klucel (hydroxypropylcellulose) (HPC)).
Consider `COC1OC(CO)C(O)C(O)C1O` (configuration not stated), for which the T/C is 100 % of control under setting [4]; 94 % of control and 104 % of control under setting [5]; 109 % of control under setting [1]; 101 % of control and 100 % of control under setting [6]; 95 % of control under setting [2]; 106 % of control and 101 % of control (dose: 400.0 mg/kg/injection, schedule: Q01DX009 (ip), vehicle: saline). Also, the T/C under setting [3] is 95 % of control.
As to `O=C(O)c1ccc(C(Cl)(Cl)Cl)cc1`, the T/C by setting is: (dose: 100.0 mg/kg/injection, schedule: Q04DX003 (ip), vehicle: saline sonified) 113 % of control; (dose: 200.0 mg/kg/injection, schedule: Q04DX003 (ip), vehicle: saline sonified) 113 % of control; (dose: 400.0 mg/kg/injection, schedule: Q04DX003 (ip), vehicle: saline sonified) 113 % of control.
On to `CCCCCCC(=O)/C=C/c1ccc(OS(=O)(=O)c2ccccc2)cc1`, for which the T/C was 105 % of control under setting [7]; 100 % of control under setting [8]; 101 % of control (dose: 200.0 mg/kg/injection, schedule: Q01DX009 (ip), vehicle: saline with Tween-80).
With `OCCn1nc2c(c1-c1ccncc1)CCCc1ccccc1-2`, the T/C by setting is: under setting [9], 97 % of control; under setting [10], 94 % of control; under setting [11], 94 % of control.
Take `CC(C)N(C(=S)Sc1c2ccccc2c(Br)c2ccccc12)C(C)C`: the T/C was 108 % of control under setting [12]; 102 % of control under setting [13]; 99 % of control and 89 % of control under setting [14].
As for `N#CC(Nc1ccccc1)c1ccc(Cl)cc1` (configuration not stated), the T/C was 94 % of control under setting [15]; 94 % of control under setting [16]; 104 % of control (dose: 240.0 mg/kg/injection, schedule: Q01DX005 (ip), vehicle: saline with Tween-80).
On to `Cc1cn(C2CC(O)C(CI)O2)c(=O)[nH]c1=O` (configuration not stated), for which the T/C reads like this: under setting [17], 98 % of control; under setting [18], 104 % of control; under setting [19], 98 % of control.
On to `CSc1nc(SC)c2c(C)cn(C3OC(C)C(O)C(O)C3O)c2n1` (configuration not stated), for which the T/C was 94 % of control under setting [18]; 93 % of control under setting [19]; 97 % of control (dose: 400.0 mg/kg/injection, schedule: Q01DX005 (ip), vehicle: saline with Tween-80).
Turning to `COc1cc2c(OC)c(c1)CCC1=CC(=O)C(=CC1=O)CC2`, the T/C by setting is: under setting [20], 99 % of control; under setting [21], 96 % of control.
For the compound `O=C1/C(=N\O)Cc2cc(Cl)ccc21`, the T/C was 101 % of control (dose: 12.0 mg/kg/injection, schedule: Q01DX005 (ip), vehicle: Klucel (hydroxypropylcellulose) (HPC)); 111 % of control under setting [13]; 101 % of control and 97 % of control under setting [14].
As to `C=C1C(=O)C23C(OC(=O)CCCCC)C1CCC2C12COC3(O)C(O)C1C(C)(C)CCC2O` (configuration not stated), the T/C is, setting by setting: (dose: 3.75 mg/kg/injection, schedule: Q01DX009 (ip), vehicle: saline with Tween-80) 102 % of control; (dose: 7.5 mg/kg/injection, schedule: Q01DX009 (ip), vehicle: saline with Tween-80) 105 % of control; (dose: 15.0 mg/kg/injection, schedule: Q01DX009 (ip), vehicle: saline with Tween-80) 113 % of control; (dose: 30.0 mg/kg/injection, schedule: Q01DX009 (ip), vehicle: saline with Tween-80) 104 % of control.
In the case of `O=S1(=O)CC(N2CCCCC2)C2=C(O1)c1ccccc1SC2` (configuration not stated), the T/C reads like this: under setting [7], 88 % of control; under setting [8], 92 % of control.
Regarding `C/C=C/C(O)CC1CCCCN1` (configuration not stated), the T/C under setting [1] is 100 % of control.
For the compound `CCc1nnc2cccc(Cl)n12`, the T/C is, setting by setting: under setting [20], 100 % of control; under setting [21], 109 % of control; (dose: 400.0 mg/kg/injection, schedule: Q01DX001 (ip), vehicle: Klucel (hydroxypropylcellulose) (HPC)) 100 % of control.
With `COc1ccc(Cc2c(O)ccc3ccccc23)cc1`, the T/C runs as follows: under setting [17], 104 % of control; under setting [18], 104 % of control; under setting [19], 111 % of control.
As to `C=C1C(=O)OC2/C=C(\C=O)C3OC3C3OC3(C)CC(OC(=O)/C(=C/C)CO)C12` (configuration not stated), the T/C by setting is: (dose: 3.12 mg/kg/injection, schedule: Q01DX005 (ip), vehicle: Klucel (hydroxypropylcellulose) (HPC)) 100 % of control; (dose: 6.25 mg/kg/injection, schedule: Q01DX005 (ip), vehicle: Klucel (hydroxypropylcellulose) (HPC)) 110 % of control; under setting [12], 110 % of control; under setting [13], 101 % of control.
As to `C=C(C)c1ccc([Si](C)(C)C)cc1`, the T/C runs as follows: under setting [4], 104 % of control; under setting [5], 101 % of control; under setting [6], 109 % of control.
`COC(=O)c1nc(N)nc(C(=O)OC)c1C(=O)c1cc(Cl)ccc1Cl`: the T/C is 100 % of control under setting [15] and 100 % of control under setting [16].
Take `COC(=O)C1C/C=C\C=C/N(C)C1=O` (configuration not stated): the T/C by setting is: under setting [9], 102 % of control; under setting [10], 101 % of control; under setting [11], 101 % of control.
As for `CCCCc1ccc2nc(C)cc(N/N=C/c3ccc4c(c3)OCO4)c2c1`, the T/C under setting [12] was 94 % of control; the T/C under setting [13] is 100 % of control; the T/C under setting [14] was 92 % of control and 94 % of control; the T/C (dose: 200.0 mg/kg/injection, schedule: Q01DX005 (ip), vehicle: Klucel (hydroxypropylcellulose) (HPC)) was 92 % of control.
Take `CN=C(NC)c1ccc(NC(=O)c2cc(C)cc(C(=O)Nc3ccc(C(=NC)NC)cc3)c2)cc1`: the T/C by setting is: (dose: 3.12 mg/kg/injection, schedule: Q01DX005 (ip), vehicle: saline with Tween-80) 103 % of control; (dose: 6.25 mg/kg/injection, schedule: Q01DX005 (ip), vehicle: saline with Tween-80) 105 % of control; (dose: 12.5 mg/kg/injection, schedule: Q01DX005 (ip), vehicle: saline with Tween-80) 107 % of control.
Turning to `CC(=NC(C)(C)C)N1CCCCC1`, the T/C runs as follows: (dose: 25.0 mg/kg/injection, schedule: Q01DX009 (ip), vehicle: saline) 106 % of control; under setting [4], 100 % of control and 90 % of control; under setting [5], 105 % of control.
As to `O=C1c2ccccc2C(=O)N1CC[P+](c1ccc(Cl)cc1)(c1ccc(Cl)cc1)c1ccc(Cl)cc1`, the T/C (dose: 25.0 mg/kg/injection, schedule: Q01DX009 (ip), vehicle: other) was 95 % of control.
